In US11549198B2, “Method of producing non-woven protein fibers” (Rowan University, priority 2017, dated 2023):

Experiment: Drug release study of model drugs from corn zein fibers and films in phosphate buffer
Type: physicochemical
Conditions: for n value from the Korsmeyer-Peppas equation of model drug release profile / release percentage at the 15-minute time point: 20 mM phosphate buffer (pH 7.0); for n value from the Korsmeyer-Peppas equation of model drug release profile: up to 96 hours; for release percentage at the 15-minute time point: fibers
Procedure: Approximately 0.05 g of film or fiber mesh was placed in 50 mL of 20 mM phosphate buffer (pH 7.0). Drug release was done in triplicate under conditions of dynamic flow. At the appropriate time points (15 minutes, 30 minutes, 1 hour, 2 hours, 3 hours, 4 hours, 5 hours, 24 hours, 48 hours, 96 hours), aliquots of solution were removed from the samples. The absorbance of each aliquot was measured at the appropriate wavelength for the corresponding model drug using a SpectraMax i3x Plate Reader (Molecular Devices LLC, Sunnyvale, Calif., USA). Absorbance was related to concentration and the values from the three aliquots were averaged and graphed as a function of time. Upon completion of the study, fibers were extracted from solution via suction filtration and dried overnight. Release profiles were then fit with the Krosmeyer-Peppas release model shown in equation 1: […]
To further investigate the potential effectiveness of the supramolecular systems for transdermal drug delivery, drug release of the model drugs incorporated in either films or fibers was simulated in 0.1% w/v 20 mM phosphate buffer (pH 7.0) for different times. Shown in FIGS. 16A-16B are the normalized release profiles for the fiber and film models, respectively. Data points were normalized based on the amount of drug released at 96 hours. No significant drug release was observed above 96 hours for all samples. […] Alcian blue is a very large molecule (MW 1.3 kDa), so it is reasonable to assume its bulkiness prevents it from being efficiently integrated into the zein structure. […] This can be attributed to the nature of the method used to fabricate the films. The corn zein was exposed to formic acid for a longer period of time during film synthesis than during fiber generation. During this time, the formic acid may have severed some of the hydrogen bonds of the corn zein structure, allowing the integration of the model drug molecules.

Compound	n value from the Korsmeyer-Peppas equation of model drug release profile (Fiber)	n value from the Korsmeyer-Peppas equation of model drug release profile (Film)	release percentage at the 15-minute time point	release profile at the earlier points (films, in contrast to the fibers)
CN(C)C(SCc1ccc2c(c1)-c1nc-2nc2[n-]c(nc3nc(nc4[n-]c(n1)c1ccc(CSC(N(C)C)=[N+](C)C)cc41)-c1ccc(CSC(N(C)C)=[N+](C)C)cc1-3)c1ccc(CSC(N(C)C)=[N+](C)C)cc21)=[N+](C)C.[Cl-].[Cl-].[Cl-].[Cl-].[Cu+2] [Alcian Blue, alcian blue 8GX]	0.1104	0.1507	considerably high release percentage	
CN(C)c1ccc(C(=C2C=CC(=[N+](C)C)C=C2)c2ccc(N(C)C)cc2)cc1 [Crystal Violet, Crystal violet]	0.353	0.1184		
O=C1/C(=C2\Nc3ccc(S(=O)(=O)[O-])cc3C2=O)Nc2ccc(S(=O)(=O)[O-])cc21.[Na+].[Na+] [Indigo Carmine, indigo carmine]	0.1318	0.430	considerably high release percentage	dramatic drop
CCN(CC)c1ccc2c(-c3ccccc3C(=O)O)c3ccc(=[N+](CC)CC)cc-3oc2c1.[Cl-] [Rhodamine B, rhodamine B]	0.337	0.203		
CO[C@H]1/C=C/O[C@@]2(C)Oc3c(C)c(O)c4c(O)c(c(/C=N/N5CCN(C)CC5)c(O)c4c3C2=O)NC(=O)/C(C)=C\C=C\[C@H](C)[C@H](O)[C@@H](C)[C@@H](O)[C@@H](C)[C@H](OC(C)=O)[C@@H]1C [Rifampin, rifampin]	0.392	0.284		
